Assay results: US20220143016A1, “METHOD FOR TREATING A MULTIPLE MYELOMA” (PTC THERAPEUTICS, INC., priority 2019, published 2022)
“Also recorded” adds a separate entry of the source.

Columns and labels:
[1] = test system: parental and PI-resistant HMCLs; assay: Cytotoxicity in human MM cell lines (HMCLs); format: cell-based; settings: parental and PI-resistant HMCLs (n=16), read-out: median IC50
Method: (§1) The effect of Compound 1 was tested in human MM cell lines (HMCLs) using cytotoxicity, colony formation, co-culture, qPCR, Western Blot, flow cytometry, ELISA, and lentiviral transduction experiments. The effect of Compound 1 was assessed in vivo in the 5TGM1 murine model of MM.

[2] = test system: BMI-1; assay: BMI-1 protein expression in HMCLs; format: cell-based, human; settings: within 24 hrs of treatment
Method: as §1

[3] = test system: MM cells; assay: Time course experiments: mitotic arrest and apoptosis in MM cells; format: cell-based, human
Method: as §1

[4] = test system: MYC, AKT, ERK, GSK3b, FOXM1; assay: Central MM signalling cascades and key MM gene protein expression; format: cell-based, human
Method: as §1

[5] = test system: MM cells; assay: Drug combination studies in MM cell lines; format: cell-based, human
Method: as §1

[6] = test system: 5TGM1 murine model of MM; assay: 5TGM1 murine model of MM, bone marrow infiltration; format: in vivo; settings: 5TGM1 model
Method: as §1

[7] = test system: microtubule polymerization; assay: Mechanistic studies of microtubule polymerization

Cc1nc2ccc(F)cc2n1-c1nc(N)c(F)c(Nc2ccc(C(F)(F)F)cc2)n1 [Compound 1, 5-fluoro-2-(6-fluoro-2-methyl-1H-benzo[d]imidazol-1-yl)-N^4-[4-(trifluoromethyl)phenyl]pyrimidine-4,6-diamine]
IC50 [1]: 57.2 nM | BMI-1 protein expression [2]: downregulated BMI-1 protein expression | mitotic arrest ([3]; 6-24 h post treatment, elevated Cyclin B1, AURKA and BIRC5, downregulation of MCL1): potent mitotic arrest | rescue of MM cells with BMI-1 overexpression ([3]; BMI-1 overexpression): did not rescue | apoptosis ([3]; after prolonged mitosis, Annexin V positive cells, cleaved caspases 8 and 9, cleaved PARP, loss of MCL1, mitochondrial membrane depolarization): induction of apoptosis | ERK and GSK3b activity [4]: unaffected | MYC and AKT activity [4]: significant reduction | MYC and FOXM1 protein expression [4]: Downregulation | combination effect with established drugs and BH3 mimetics ([5]; IMiDs, Dex, PIs, MEL, BH3 mimetics targeting BCL2, BCLxL, MCL1, in individual cell lines): synergism | combination effect with epigenetic modulators ([5]; targeting EZH2, CBP/EP300, BRD4, HDACs): Consistent synergism | MM cells after treatment ([6]; 30 mg/kg/biweekly): complete eradication of MM cells | BM infiltration ([6]; various doses versus vehicle (FIG. 1, *P<0.0001)): dose response reduction; also recorded: reproducible dose dependent reduction | microtubule polymerization [7]: inhibits microtubule polymerization
